According to publication PMC4286281, “Profiling of the Tox21 Chemical Collection for Mitochondrial Function to Identify Compounds that Acutely Decrease Mitochondrial Membrane Potential” (Environmental Health Perspectives, 2014):
Counter-ions that a name gives are not always drawn. Like-named read-outs stand apart in the source and are kept apart here.

Tested on: mitochondrial membrane potential (MMP) in HepG2 cells
Test: qHTS mitochondrial membrane potential (MMP) assay with m-MPI dye, multiplexed with CellTiter-Glo cell viability
Assay type: cell-based, human
Settings: for Emax: read-out: Efficacy; for MMP assay activity outcome (active antagonist / inactive / inconclusive): call from triplicate runs, multichannel readout and cell viability
[1] = Homo sapiens, HepG2, 1 h, read-out: Potency
[2] = Homo sapiens, HepG2 cells, 1 hr treatment, ratio 590 nm/535 nm, read-out: IC50 in the MMP assay (decrease of MMP)
[3] = Table S4, 20 most potent active compounds for the MMP screen, HepG2, 1 hr
[4] = Table S4, 20 most potent active compounds for the MMP screen, HepG2, 1 hr, read-out: Potency
[5] = HepG2 cells, 1 hr treatment, ratio 590 nm/535 nm, read-out: IC50 in the MMP assay (decrease of MMP)

## Nc1ccc(N)c2c1C(=O)c1ccccc1C2=O [1,4-Diaminoanthraquinone]
Homo sapiens, HepG2, 1 h
  Emax: 82%
[1]
  IC50: 33.1 nM

## O=C1c2c(O)ccc([N+](=O)[O-])c2C(=O)c2c([N+](=O)[O-])ccc(O)c21 [1,8-Dihydroxy-4,5-dinitroanthraquinone]
  Efficacy: 86.4%
read-out: Potency
  IC50: 73.4 nM

## O=C(c1ccccc1O)c1ccccc1O [2,2´-dihydroxybenzophenone]
[2]
  IC50: 14100 nM

## Oc1c(Cl)c(Cl)c(Cl)c(Cl)c1Cl [2,3,4,5,6-pentachlorophenol]
HepG2 cells, 1 hr treatment
  MMP assay activity outcome (active antagonist / inactive / inconclusive): active

## NNc1nc(-c2ccc(N)cc2)cs1 [2-Hydrazino-4-(4-aminophenyl) thiazole]
[3]
  Efficacy: 82.5%
[4]
  IC50: 63.5 nM

## COc1ccc(C(=O)c2ccccc2)c(O)c1 [2-hydroxy-4-methoxybenzophenone]
HepG2 cells, 1 hr treatment
  MMP assay activity outcome (active antagonist / inactive / inconclusive): not active

## O=C(c1ccccc1)c1ccccc1O [2-hydroxybenzophenone]
HepG2 cells, 1 hr treatment
  MMP assay activity outcome (active antagonist / inactive / inconclusive): inactive

## O=C(c1ccccc1)c1cccc(O)c1 [3-hydroxybenzophenone]
[2]
  IC50: 27700 nM

## O=C(c1ccc(Cl)cc1)c1ccc(Cl)cc1 [4,4´-dichlorobenzophenone]
HepG2 cells, 1 hr treatment
  MMP assay activity outcome (active antagonist / inactive / inconclusive): inactive

## O=C(c1ccc(O)cc1)c1ccc(O)cc1 [4,4´-dihydoxybenzophenone]
HepG2 cells, 1 hr treatment
  MMP assay activity outcome (active antagonist / inactive / inconclusive): inconclusive

## CC(C)(c1ccccc1)c1ccc(O)cc1 [4-(1-methyl-1-phenylethyl)phenol]
HepG2 cells, 1 hr treatment
  MMP assay activity outcome (active antagonist / inactive / inconclusive): active

## Nc1ccc(O)cc1 [4-aminophenol]
HepG2 cells, 1 hr treatment
  MMP assay activity outcome (active antagonist / inactive / inconclusive): active

## O=C(c1ccccc1)c1ccc(O)cc1 [4-hydroxybenzophenone]
[2]
  IC50: 41300 nM

## Cc1ccc(C(=O)c2ccccc2)cc1 [4-methylbenzophenone]
HepG2 cells, 1 hr treatment
  MMP assay activity outcome (active antagonist / inactive / inconclusive): inactive

## O=C(c1ccccc1)c1ccccc1 [Benzophenone]
HepG2 cells, 1 hr treatment
  MMP assay activity outcome (active antagonist / inactive / inconclusive): inactive

## CCC[CH2][Sn]([CH2]CCC)([CH2]CCC)[O][Sn]([CH2]CCC)([CH2]CCC)[CH2]CCC [Bis(tributyltin)oxide]
  Efficacy: 112.1%
  Potency rank in the MMP screen: among the most potent compounds
read-out: Potency
  IC50: 91.1 nM

## Cl.N=C1C=CC(=C(c2ccc(N)cc2)c2ccc(N)cc2)C=C1 [C.I. Basic red 9 monohydrochloride]
HepG2 cells, 1 hr treatment
  Potency rank in the MMP screen: among the most potent compounds
[3]
  Efficacy: 95.3%
[4]
  IC50: 77 nM

## CCOCn1c(-c2ccc(Cl)cc2)c(C#N)c(Br)c1C(F)(F)F [Chlorfenapyr]
Homo sapiens, HepG2, 1 h
  Emax: 105%
[1]
  IC50: 74.1 nM

## CCN1/C(=C/C=C/C=C/c2sc3ccccc3[n+]2CC)Sc2ccccc21 [Dithiazanine iodide]
Homo sapiens, HepG2, 1 h
  Emax: 85.4%
[1]
  IC50: 95.8 nM

## N#CC(C#N)=NNc1ccc(OC(F)(F)F)cc1 [FCCP, carbonyl cyanide 4-(trifluoromethoxy) phenylhydrazone, reference compound]
Homo sapiens, HepG2, 1 h, read-out: IC50 of the positive control, decrease of MMP (mean ± SD)
  IC50: 110 ± 70 nM

## O=C1OC2(c3ccc(O)cc3Oc3cc(O)ccc32)c2ccccc21 [Fluorescein]
Homo sapiens, HepG2, 1 h
  Emax: 112%
[1]
  IC50: 105 nM

## CN(C)c1ccc(C(=C2C=CC(=[N+](C)C)C=C2)c2ccc(N(C)C)cc2)cc1 [Gentian violet]
Homo sapiens, HepG2, 1 h
  Emax: 91.9%
[1]
  IC50: 78.8 nM

## O=C(Nc1ccc([N+](=O)[O-])cc1Cl)c1cc(Cl)ccc1O [Niclosamide, reference compound]
Homo sapiens, HepG2, 1 h
  Emax: 97.7%
[1]
  IC50: 26.3 nM

## COc1cccc2c1C(=O)c1c(O)c3c(c(O)c1C2=O)C[C@@](O)(C(=O)CO)C[C@@H]3O[C@H]1C[C@H](N)[C@H](O[C@@H]2CCCCO2)[C@H](C)O1 [Pirarubicin, reference compound]
[2]
  IC50: 600 nM

## C[C@@H]1O[C@@H](O[C@@H]2C=C3CC[C@@H]4[C@H](CC[C@]5(C)[C@@H](c6ccc(=O)oc6)CC[C@]45O)[C@@]3(C)CC2)[C@H](O)[C@H](O)[C@H]1O [Proscillaridin, reference compound]
HepG2 cells, 1 hr treatment
  Potency rank in the MMP screen: among the most potent compounds
Homo sapiens, HepG2, 1 h
  Emax: 72.4%
[1]
  IC50: 86.8 nM

## CCC[CH2][Sn]([Cl])([CH2]CCC)[CH2]CCC [Tributyltin chloride]
  Efficacy: 96.9%
  Potency rank in the MMP screen: among the most potent compounds
read-out: Potency
  IC50: 107 nM

## CC(=O)[O][Sn]([c]1ccccc1)([c]1ccccc1)[c]1ccccc1 [Triphenyltin acetate]
  Efficacy: 98.7%
HepG2 cells, 1 hr treatment
  Potency rank in the MMP screen: among the most potent compounds
read-out: Potency
  IC50: 117 nM

## [OH-].c1cc[c]([Sn+]([c]2ccccc2)[c]2ccccc2)cc1 [Triphenyltin hydroxide]
  Efficacy: 94.7%
HepG2 cells, 1 hr treatment
  Potency rank in the MMP screen: among the most potent compounds
read-out: Potency
  IC50: 122 nM

## CC[C@@]1(O)C[C@H](O[C@H]2C[C@H](N(C)C)[C@H](O[C@H]3C[C@H](O)[C@H](O[C@H]4CCC(=O)[C@H](C)O4)[C@H](C)O3)[C@H](C)O2)c2c(cc3c(c2O)C(=O)c2c(O)cccc2C3=O)[C@H]1C(=O)OC [aclarubicin hydrochloride, reference compound]
HepG2 cells, 1 hr treatment
  MMP assay activity outcome (active antagonist / inactive / inconclusive): active

## COc1cccc2c1C(=O)c1c(O)c3c(c(O)c1C2=O)C[C@@](O)(C(=O)CO)C[C@@H]3O[C@H]1C[C@H](N)[C@H](O)[C@H](C)O1 [adriamycin hydrochloride, reference compound]
HepG2 cells, 1 hr treatment
  MMP assay activity outcome (active antagonist / inactive / inconclusive): inactive

## ClC1=C(Cl)C2(Cl)C3C4C=CC(C4)C3C1(Cl)C2(Cl)Cl (stereo not shown) [aldrin]
HepG2 cells, 1 hr treatment
  MMP assay activity outcome (active antagonist / inactive / inconclusive): active as antagonists

## CCN=C1C=CC(=C(c2ccc(N(CC)CC)cc2)c2ccc(N(CC)CC)cc2)c2ccccc21.Cl [basic blue 7, Basic blue 7]
HepG2 cells, 1 hr treatment
  Potency rank in the MMP screen: among the most potent compounds
[5]
  IC50: 18.5 nM
[3]
  Efficacy: 86.6%

## CCC/C=C/C=C/C(=O)O[C@H]1/C(=C/C(=O)OC)C[C@H]2C[C@H]([C@@H](C)O)OC(=O)C[C@H](O)C[C@@H]3C[C@H](OC(C)=O)C(C)(C)[C@](O)(C[C@@H]4C/C(=C/C(=O)OC)C[C@H](/C=C/C(C)(C)[C@]1(O)O2)O4)O3 [bryostatin 1, Bryostatin 1, reference compound]
Homo sapiens, HepG2, 1 h
  Emax: 105%
[1]
  IC50: 9.58 nM
[2]
  IC50: 9.6 nM

## CCN1/C(=C/C=C/c2ccc3ccccc3[n+]2CC)C=Cc2ccccc21.[I-] [carbocyanine, Carbocyanine]
[3]
  Efficacy: 90.7%
[4]
  IC50: 14.7 nM

## O=C(O)C1C(C(=O)O)C2(Cl)C(Cl)=C(Cl)C1(Cl)C2(Cl)Cl (stereo not shown) [chlorendic acid]
HepG2 cells, 1 hr treatment
  MMP assay activity outcome (active antagonist / inactive / inconclusive): inactive

## CO[C@@H]1[C@H](O)C[C@@H](O[C@@H]2C[C@H](Oc3cc4cc5c(c(O)c4c(O)c3C)C(=O)[C@@H](O[C@H]3C[C@@H](O[C@H]4C[C@@H](O[C@H]6C[C@](C)(O)[C@@H](OC(C)=O)[C@H](C)O6)[C@H](O)[C@@H](C)O4)[C@H](O)[C@@H](C)O3)[C@H]([C@H](OC)C(=O)[C@@H](O)[C@@H](C)O)C5)O[C@H](C)[C@@H]2OC(C)=O)O[C@@H]1C [chromomycin A3]
HepG2 cells, 1 hr treatment
  MMP assay activity outcome (active antagonist / inactive / inconclusive): active

## O=[N+]([O-])c1ccc(O)c([N+](=O)[O-])c1 [dinitrophenol, reference compound]
HepG2 cells, 1 hr treatment
  MMP assay activity outcome (active antagonist / inactive / inconclusive): inconclusive antagonist (cytotoxic)

## CCCCCCCCCCCCOC(=O)c1ccc(O)cc1 [dodecylparaben]
[5]
  IC50: 4200 nM

## COC(=O)c1ccc(O)cc1 [methylparaben]
HepG2 cells, 1 hr treatment
  MMP assay activity outcome (active antagonist / inactive / inconclusive): inactive

## COc1ccc(C(=O)c2ccc(C)cc2)c(O)c1 [mexenone]
HepG2 cells, 1 hr treatment
  MMP assay activity outcome (active antagonist / inactive / inconclusive): not active

## C[C@@H]1O[C@@H](O[C@H]2C[C@@H](O)[C@]3(CO)[C@H]4[C@H](O)C[C@]5(C)[C@@H](C6=CC(=O)OC6)CC[C@]5(O)[C@@H]4CC[C@]3(O)C2)[C@H](O)[C@H](O)[C@H]1O [ouabain, reference compound]
HepG2 cells, 1 hr treatment
  Potency rank in the MMP screen: among the most potent compounds

## COc1ccc(Cc2nccc3cc(OC)c(OC)cc23)cc1OC [papaverine, reference compound]
HepG2 cells, 1 hr treatment
  MMP assay activity outcome (active antagonist / inactive / inconclusive): inconclusive antagonist (cytotoxic)

## CCCCCOC(=O)c1ccc(O)cc1 [pentylparaben]
[2]
  IC50: 8700 nM

## CCCOC(=O)c1ccc(O)cc1 [propylparaben]
[2]
  IC50: 38600 nM

## C=C(C)[C@H]1Cc2c(ccc3c2O[C@@H]2COc4cc(OC)c(OC)cc4[C@@H]2C3=O)O1 [rotenone, reference compound]
HepG2 cells, 1 hr treatment
  MMP assay activity outcome (active antagonist / inactive / inconclusive): inconclusive antagonist (cytotoxic)

## CC1(C)C(C(Cl)Cl)C2(Cl)C(Cl)C(Cl)C1(Cl)C2(Cl)Cl (stereo not shown) [toxaphene]
HepG2 cells, 1 hr treatment
  MMP assay activity outcome (active antagonist / inactive / inconclusive): active as antagonists

## CCCCC(=O)OCC(=O)[C@]1(O)Cc2c(O)c3c(c(O)c2[C@@H](O[C@H]2C[C@H](NC(=O)C(F)(F)F)[C@H](O)[C@H](C)O2)C1)C(=O)c1c(OC)cccc1C3=O [valrubicin, reference compound]
[2]
  IC50: 1900 nM

## Methyl violet
  Efficacy: 121.5%
HepG2 cells, 1 hr treatment
  Potency rank in the MMP screen: among the most potent compounds
read-out: Potency
  IC50: 65.3 nM

## plicamycin [reference compound]
HepG2 cells, 1 hr treatment
  MMP assay activity outcome (active antagonist / inactive / inconclusive): active
